The source of these data is ChEMBL document CHEMBL1201862, “PubChem BioAssay data set” (2004).

As usually defined, the GI50 is the concentration that inhibits growth by half.

Test systems include HCT-116; KM-20L2; MCF7; XF498; DMS-273; SNB-78; SW-620; DMS-114; OVCAR-4; DLD-1; M19-MEL; HOP-18; SN12C; A549.
Common to all, as to assay: DTP human tumour cell line panel, 48 h

Structures are written as SMILES.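 Protocol summary: plate cells (96-well), add compound at 5 concentrations, incubate 48 h, interpolate endpoints linearly. Abbreviation: GI50, concentration required for 50% inhibition of growth.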 Activity calls are given as the source filed them. No stated cut-off is given here; in the data, active = GI50 up to about 1.1 µM and inactive = higher.

`CC1(C)CC2(CC(C)(C)N1O)NC(=O)OC2=O`: the GI50 in the assay with HCT-116, in the assay on KM-20L2, with MCF7, with XF498, in the assay on DMS-273 and with SNB-78 was > 100 µM (inactive) each time. In addition, the GI50 in the assay with SW-620, in the assay on DMS-114, with OVCAR-4, with DLD-1, with M19-MEL and with HOP-18 was > 100 µM (inactive) in each case. For the same compound, the GI50 with SN12C and in the assay with A549 was > 100 µM (inactive) each time.

Turning to `CC[C@@]1(O)C[C@H](OC2CC(N(C)C)C(OC3CC(O)C(OC4CC(O)C(O)C(C)O4)C(C)O3)C(C)O2)c2c(cc3c(c2O)C(=O)c2c(O)ccc(O)c2C3=O)[C@H]1C(=O)OC` (stereo partly drawn), the GI50 was 0.00507 µM (active) with HCT-116; 0.108 µM (active) with KM-20L2; 0.0156 µM (active) with MCF7; 0.0189 µM (active) in the assay on XF498; 0.0108 µM (active) in the assay with DMS-273; 0.0776 µM (active) with SNB-78. Moreover, the GI50 in the assay with SW-620 is 0.00875 µM (active); in the assay with DMS-114, 0.0853 µM (active); with OVCAR-4, 0.0371 µM (active); in the assay with DLD-1, 0.0328 µM (active); in the assay on M19-MEL, 0.0121 µM (active); with HOP-18, 0.136 µM (active). In addition, the GI50 in the assay on SN12C is 0.0148 µM (active); in the assay on A549 it was 0.0105 µM (active).
